Reference: PubChem BioAssay (NCI)
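Five concentrations, 48 hours, 96-well plates. Abbreviation: GI50, concentration required for 50% inhibition of growth. TGI marks complete inhibition of growth.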

Key:
Test in all cases: inhibition of tumour cell growth, NCI panel, 48 h
RPMI-8226 leukemia = system: RPMI-8226 leukemia
M14 melanoma = system: M14 melanoma
OVCAR-4 ovarian = system: OVCAR-4 ovarian
TK-10 renal = system: TK-10 renal
OVCAR-3 ovarian = system: OVCAR-3 ovarian
HT29 colon = system: HT29 colon
IGROV1 ovarian = system: IGROV1 ovarian
MDA-MB-435 = system: MDA-MB-435
HS 578T breast = system: HS 578T breast
MDA-MB-231 breast = system: MDA-MB-231 breast

| SMILES | TGI (RPMI-8226 leukemia) [µM] | TGI (M14 melanoma) [µM] | TGI (OVCAR-4 ovarian) [µM] | TGI (TK-10 renal) [µM] | TGI (OVCAR-3 ovarian) [µM] | TGI (HT29 colon) [µM] | TGI (IGROV1 ovarian) [µM] | GI50 (RPMI-8226 leukemia) [µM] | GI50 (M14 melanoma) [µM] | GI50 (OVCAR-4 ovarian) [µM] | GI50 (TK-10 renal) [µM] | GI50 (MDA-MB-435) [µM] | TGI (MDA-MB-435) [µM] | GI50 (HS 578T breast) [µM] | TGI (HS 578T breast) [µM] | GI50 (OVCAR-3 ovarian) [µM] | GI50 (HT29 colon) [µM] | GI50 (MDA-MB-231 breast) [µM] | TGI (MDA-MB-231 breast) [µM] | GI50 (IGROV1 ovarian) [µM] |
| --- | --- | --- | --- | --- | --- | --- | --- | --- | --- | --- | --- | --- | --- | --- | --- | --- | --- | --- | --- | --- |
| COc1ccc(/C(Cl)=C(\C=O)c2ccc([N+](=O)[O-])cc2)cc1 | 8 | > 74.6 | 57.3 | > 73.6 | 53.4 | 29.9 | 53.3 |  |  |  |  |  |  |  |  |  |  |  |  |  |
| COc1ccc2nc3cc(Cl)ccc3c(NCCN)c2c1 | 5.07 | 3.44 | 3.02 | 3.18 |  |  |  | 2.04 | 1.82 | 1.61 | 1.76 | 1.76 | 3.36 |  |  |  |  |  |  |  |
| CN(C)C(c1ccccc1)C(O)c1ccccc1 (centres undefined) | > 100 | > 100 |  | > 100 | > 100 | > 100 | > 100 |  |  |  |  |  |  |  |  |  |  |  |  |  |
| COC1=CC2(C=CC1=O)c1cc(OC)c(OC)cc1CCN2C(=O)c1ccccc1 (centres undefined) | > 100 | > 100 |  | > 100 | > 100 | > 100 | > 100 |  |  |  |  |  |  |  |  |  |  |  |  |  |
| Cc1ccc(-c2cc(=O)c3cc(C)c(C)c(C(=O)O)c3o2)cc1C | > 100 | > 100 | > 100 | > 100 | > 100 | > 100 | > 100 |  |  |  |  |  |  |  |  |  |  |  |  |  |
| O=C(/C=C/c1c(O)ccc2ccccc12)c1ccccc1 | 80.6 | > 100 | > 100 | > 100 | > 100 | 30.2 | > 100 |  |  |  |  |  |  |  |  |  |  |  |  |  |
| Fc1ccc(C2SCc3nc4ccccc4n32)cc1Cl (centres undefined) |  |  | > 100 | 67.1 |  | > 100 |  |  |  |  |  |  |  |  |  |  |  |  |  |  |
| Cc1[nH]c2ccccc2c1C1Cc2ccccc2N1C(=O)/C(Cl)=C/c1ccccc1 (centres undefined) | > 100 | > 100 | > 100 | > 100 | > 100 | > 100 | > 100 |  |  |  |  |  |  |  |  |  |  |  |  |  |
| CC(C)c1ccc(C(c2ccc(OCC(=O)O)cc2)c2ccc(C(C)C)cc(=O)c2O)c(O)c(=O)c1 | 47 | 11 | 12.8 | 42.8 | 8.31 | > 100 | 21 |  |  |  |  |  |  |  |  |  |  |  |  |  |
| CCc1ccc(Nc2ccc([N+](=O)[O-])cc2[N+](=O)[O-])cc1 | > 100 | > 100 | > 100 | > 100 | > 100 | > 100 | > 100 |  |  |  |  |  |  |  |  |  |  |  |  |  |
| N#CCc1ccc(C(C#N)/C(CCCC(=O)Nc2cccc([N+](=O)[O-])c2)=N/NC(N)=S)cc1 (centres undefined) | > 100 | > 100 | > 100 | > 100 | > 100 | > 100 | > 100 |  |  |  |  |  |  |  |  |  |  |  |  |  |
| CCCCCCC(=O)C/C(=N/NC(N)=S)C(=O)NC1C2CC3CC(C2)CC1C3 (centres undefined) | > 100 | > 100 | > 100 | > 100 | > 100 | > 100 | > 100 |  |  |  |  |  |  |  |  |  |  |  |  |  |
| COc1cccc(N2C(=O)[C@H]3CC(C)c4c([nH]c5ccccc45)[C@H]3C2=O)c1 (some centres undefined) | > 100 | > 100 |  | > 100 | > 100 | > 100 | > 100 |  |  |  |  |  |  |  |  |  |  |  |  |  |
| Cc1ccc(NC(=O)c2sc3nc(C)c(C(O)c4ccccc4)cc3c2N)cc1 (centres undefined) | 43.3 | 26.1 | 47 | 36.4 | 11.4 | 14.8 | 36.8 | 0.421 | 0.284 | 1.55 | 2.12 |  |  | 0.327 | 10.3 | 0.351 | 0.358 | 0.777 | 21.8 | 0.634 |
| COC(C(O)c1ccc2c(c1)OCO2)P(=O)(c1ccccc1)c1ccccc1 (centres undefined) |  | > 100 | 30.9 | > 100 | 40.3 | > 100 | > 100 |  |  |  |  |  |  |  |  |  |  |  |  |  |
| CS(=O)(=O)c1cc(=O)c2ccccc2s1 |  | 3.44 | 7.8 | 13.7 | 5.27 | 16.2 | 41.2 |  |  |  |  |  | 24.8 |  | 68.8 |  |  |  | 31.4 |  |
| CC1=N/C(=C\c2cccc([N+](=O)[O-])c2)C(=O)O1 | > 100 | > 100 |  | > 100 |  | > 100 | > 100 |  |  |  |  |  |  |  |  |  |  |  |  |  |
| C=C1CC[C@@H]2[C@](C)(COC(C)=O)[C@H](OC(C)=O)CC[C@@]2(C)[C@@H]1CC(Nc1ccc(S(=O)(=O)Nc2ncccn2)cc1)C1=CCOC1=O (some centres undefined) | 3.12 | 3.98 | 5.26 | 6.03 | 2.54 |  | 4.41 | 0.541 | 1.44 | 1.85 | 2.77 | 1.58 | 3.77 | 3.54 | 24.4 | 1.21 |  | 1.95 | 3.93 | 2.04 |
| CCOc1ccc2c(c1)[n+]([O-])c(-c1nc3ccccc3s1)c(N)[n+]2[O-] | > 100 | > 100 | > 100 | > 100 | > 100 | > 100 | > 100 |  |  |  |  |  |  |  |  |  |  |  |  |  |
| Cn1c2ccccc2c2c3[nH]c(=O)[nH]c(=O)c3c3c4ccccc4n(C)c3c21 |  | > 100 |  | 16.5 | 7 |  | 12 |  | 2.43 |  | 1.91 | 3.05 | > 100 | 2.44 | 8.21 | 2.38 |  | 5.41 | 31.4 | 2.14 |
| COc1cc2c(c(OC)c1)C1(CC(CC#N)C2)SCCS1 (centres undefined) | > 100 | > 100 | > 100 | > 100 | > 100 |  | > 100 |  |  |  |  |  |  |  |  |  |  |  |  |  |
| COc1ccc2c3c(coc13)C(CCC(=O)O)CC2 (centres undefined) |  | > 100 | > 100 | > 100 | > 100 | > 100 | > 100 |  |  |  |  |  |  |  |  |  |  |  |  |  |
| COc1ccc(CNc2nc3cc(C(F)(F)F)ccc3nc2C)cc1OC | 97 | 44.6 | 43.1 | 87.8 | > 100 | > 100 | > 100 |  |  |  |  |  |  |  |  |  |  |  |  |  |
| CC[CH2][Sn]([Cl])([Cl])[CH2]CC.Oc1ccccc1C=NCCN=Cc1ccccc1O | 8.33 | 19.3 | 21 |  | 21.4 |  | 27 | 3.35 | 5.49 | 8.21 |  | 7.3 | 24.7 | 2.33 | 9.09 | 9.29 |  | 3.96 | 15.8 | 5.98 |
